Experimental data reported in patent US20200231614A1, “PSMA TARGETED RADIOHALOGENATED UREAS FOR CANCER RADIOTHERAPY” (THE JOHNS HOPKINS UNIVERSITY, priority 2015, published 2020).
Like-named read-outs stand apart in the source and are kept apart here.

Experiments:
PSMA = PSMA (Homo sapiens, UniProt Q04609); assay: PSMA binding affinity (Ki); settings: measured Ki, Table 11
Source text: Lysine glutamate ureas compounds for radiotherapy are disclosed in FIG. 2.

[1] = tested on: PSMA + PC-3 PiP and PSMA − PC-3 flu tumor xenografts; settings: radioiodinated compound, Chen et al., 2008; cited from earlier work
PSMA positive cells = assay: In vitro radiotoxicity (cell kill); settings: vs. free [^211At]astatide (FIG. 5B)
[2] = tested on: PSMA + PC-3 PiP and PSMA − PC-3 flu tumor xenografts; settings: for Biodistribution: PC-3 PiP: PSMA+ tumor xenograft; for Biodistribution: PC-3 flu: PSMA− tumor xenograft
LNCaP cells = assay: Uptake by LNCaP cells in presence and absence of PSMA inhibitor; settings: 2 h and 4 h, presence and absence of PSMA inhibitor 2-PSMA (FIG. 5A)
[3] = tested on: PSMA+(PIP) tumors and PSMA−(Flu) tumors; type: in vivo; settings: 3 to 19 days after single-bolus injection (20 μCi), PSMA+(PIP) vs PSMA−(Flu) tumors
[4] = 18 H post-injection, comparative Table 13

Chain of PSMA (Q04609 whole entry): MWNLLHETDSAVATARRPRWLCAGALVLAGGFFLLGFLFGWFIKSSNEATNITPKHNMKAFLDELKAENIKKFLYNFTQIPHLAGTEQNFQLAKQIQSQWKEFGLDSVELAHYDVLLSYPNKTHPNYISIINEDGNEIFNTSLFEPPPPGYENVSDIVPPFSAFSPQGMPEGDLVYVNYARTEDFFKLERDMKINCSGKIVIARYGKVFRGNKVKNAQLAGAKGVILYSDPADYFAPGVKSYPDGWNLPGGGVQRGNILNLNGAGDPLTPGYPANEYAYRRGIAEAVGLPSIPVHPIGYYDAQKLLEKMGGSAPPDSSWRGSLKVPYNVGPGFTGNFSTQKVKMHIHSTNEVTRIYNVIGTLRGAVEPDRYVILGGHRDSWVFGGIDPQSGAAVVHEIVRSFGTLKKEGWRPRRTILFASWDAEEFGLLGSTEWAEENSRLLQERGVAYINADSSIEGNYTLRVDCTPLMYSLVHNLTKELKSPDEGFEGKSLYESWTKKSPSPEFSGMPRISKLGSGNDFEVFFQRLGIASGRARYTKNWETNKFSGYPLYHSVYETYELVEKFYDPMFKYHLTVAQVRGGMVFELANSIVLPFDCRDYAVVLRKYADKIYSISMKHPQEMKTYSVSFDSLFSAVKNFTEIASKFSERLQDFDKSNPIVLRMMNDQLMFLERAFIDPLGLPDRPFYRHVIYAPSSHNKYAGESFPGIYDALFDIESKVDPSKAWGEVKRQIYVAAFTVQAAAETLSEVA

Compound O=C(O)CC[C@H](NC(=O)N[C@@H](CCC(=O)NCCc1ccc(I)cc1)C(=O)O)C(=O)O [HS-549, (((5)-1-Carboxy-4-((4-iodophenethyl)amino)-4-oxobutyl)carbamoyl)-L-glutamic Acid] has a Ki (PSMA) of 0.01 nM.
For O=C(O)CC[C@H](NC(=O)N[C@@H](CCCCNC(=O)c1ccc(I)cc1)C(=O)O)C(=O)O [YC-I-27], the “Tumor uptake (in words)” value [1] is given as “high and prolonged tumor uptake”.
With O=C(O)CC[C@H](NC(=O)NC(CCCCNC(=O)c1ccc([211At])cc1)C(=O)O)C(=O)O (stereo partly drawn) [[^211At]YC-I-27, (2S)-2-(3-(1-Carboxy-5-(4-[^211At]asatatobenzamido)pentyl)ureido)pentanedioic Acid] the Cell kill (PSMA positive cells) was “effectively kill cell relative to the untargeted alpha emitter”, the “Biodistribution: Sm int.” value ([2]; 1 H post-injection) was 3.67 ± 0.65 % ID/g and the “Biodistribution: bladder” value ([2]; 1 H post-injection) was 5.45 ± 2.57 % ID/g. For the same compound, the “Biodistribution: blood” value ([2]; 1 H post-injection) was 1.67 ± 0.32 % ID/g, the “Biodistribution: heart” value ([2]; 1 H post-injection) was 2.36 ± 0.48 % ID/g and the “Biodistribution: kidney” value ([2]; 1 H post-injection) was 71.5 ± 12.0 % ID/g. For the same compound, the “Biodistribution: liver” value ([2]; 1 H post-injection) was 2.11 ± 0.65 % ID/g, the “Biodistribution: lung” value ([2]; 1 H post-injection) was 5.82 ± 1.28 % ID/g and the “Biodistribution: muscle” value ([2]; 1 H post-injection) was 0.95 ± 0.15 % ID/g. For the same compound, the “Biodistribution: spleen” value ([2]; 1 H post-injection) was 29.2 ± 10.2 % ID/g, the “Biodistribution: stomach” value ([2]; 1 H post-injection) was 10.1 ± 1.66 % ID/g and the “Biodistribution: thyroid” value ([2]; 1 H post-injection) was 3.68 ± 1.10 % ID/g. The “Biodistribution: Sm int.” value ([2]; 2 H post-injection) was 2.08 ± 0.41 % ID/g, the “Biodistribution: bladder” value ([2]; 2 H post-injection) was 4.55 ± 0.86 % ID/g and the “Biodistribution: blood” value ([2]; 2 H post-injection) was 1.26 ± 0.15 % ID/g. For the same compound, the “Biodistribution: heart” value ([2]; 2 H post-injection) was 1.79 ± 0.31 % ID/g, the “Biodistribution: kidney” value ([2]; 2 H post-injection) was 60.2 ± 6.16 % ID/g and the “Biodistribution: liver” value ([2]; 2 H post-injection) was 1.58 ± 0.21 % ID/g. The “Biodistribution: lung” value ([2]; 2 H post-injection) was 6.30 ± 1.57 % ID/g, the “Biodistribution: muscle” value ([2]; 2 H post-injection) was 0.81 ± 0.12 % ID/g and the “Biodistribution: spleen” value ([2]; 2 H post-injection) was 20.3 ± 5.21 % ID/g. The “Biodistribution: stomach” value ([2]; 2 H post-injection) was 9.29 ± 2.86 % ID/g, the “Biodistribution: thyroid” value ([2]; 2 H post-injection) was 3.56 ± 0.95 % ID/g and the tumor/kidney ratio ([2]; 2 H post-injection) was 0.3. For the same compound, the “Biodistribution: Sm int.” value ([2]; 4 H post-injection) was 1.85 ± 0.23 % ID/g, the “Biodistribution: bladder” value ([2]; 4 H post-injection) was 4.17 ± 0.74 % ID/g and the “Biodistribution: blood” value ([2]; 4 H post-injection) was 0.99 ± 0.12 % ID/g. For the same compound, the “Biodistribution: heart” value ([2]; 4 H post-injection) was 1.65 ± 0.39 % ID/g, the “Biodistribution: kidney” value ([2]; 4 H post-injection) was 60.2 ± 11.5 % ID/g and the “Biodistribution: liver” value ([2]; 4 H post-injection) was 1.63 ± 0.10 % ID/g. For the same compound, the “Biodistribution: lung” value ([2]; 4 H post-injection) was 5.54 ± 1.79 % ID/g, the “Biodistribution: muscle” value ([2]; 4 H post-injection) was 0.72 ± 0.14 % ID/g and the “Biodistribution: spleen” value ([2]; 4 H post-injection) was 20.3 ± 3.55 % ID/g. The “Biodistribution: stomach” value ([2]; 4 H post-injection) was 13.3 ± 3.12 % ID/g, the “Biodistribution: thyroid” value ([2]; 4 H post-injection) was 3.83 ± 1.18 % ID/g and the “Biodistribution: Sm int.” value ([2]; 18 H post-injection) was 1.08 ± 0.10 % ID/g. For the same compound, the “Biodistribution: bladder” value ([2]; 18 H post-injection) was 2.51 ± 0.39 % ID/g, the “Biodistribution: blood” value ([2]; 18 H post-injection) was 0.53 ± 0.05 % ID/g and the “Biodistribution: heart” value ([2]; 18 H post-injection) was 1.10 ± 0.16 % ID/g. For the same compound, the “Biodistribution: kidney” value ([2]; 18 H post-injection) was 57.4 ± 7.36 % ID/g, the “Biodistribution: liver” value ([2]; 18 H post-injection) was 0.82 ± 0.07 % ID/g and the “Biodistribution: lung” value ([2]; 18 H post-injection) was 3.61 ± 0.40 % ID/g. The “Biodistribution: muscle” value ([2]; 18 H post-injection) was 0.49 ± 0.27 % ID/g, the “Biodistribution: spleen” value ([2]; 18 H post-injection) was 8.01 ± 2.04 % ID/g and the “Biodistribution: stomach” value ([2]; 18 H post-injection) was 9.42 ± 3.04 % ID/g. The “Biodistribution: thyroid” value ([2]; 18 H post-injection) was 6.50 ± 1.97 % ID/g, the “Non-target organ uptake: spleen” value [2, 4] was 8.0 % D/g and the “Non-target organ uptake: stomach” value [2, 4] was 9.4 % D/g. The “Non-target organ uptake: thyroid” value [2, 4] was 6.5 % D/g, the tumor/kidney ratio ([2]; 21 H post-injection) was 0.5 and the “Biodistribution: PC-3 PiP” value ([2]; 1 H post-injection) was 17.9 ± 2.98 % ID/g. The “Biodistribution: PC-3 PiP” value ([2]; 2 H post-injection) was 20.7 ± 3.42 % ID/g, the “Biodistribution: PC-3 PiP” value ([2]; 4 H post-injection) was 18.3 ± 2.90 % ID/g and the “Biodistribution: PC-3 PiP” value ([2]; 18 H post-injection) was 31.1 ± 9.78 % ID/g. For the same compound, the “Biodistribution: PC-3 flu” value ([2]; 1 H post-injection) was 2.18 ± 0.44 % ID/g, the “Biodistribution: PC-3 flu” value ([2]; 2 H post-injection) was 1.81 ± 0.27 % ID/g and the “Biodistribution: PC-3 flu” value ([2]; 4 H post-injection) was 1.53 ± 0.22 % ID/g. For the same compound, the “Biodistribution: PC-3 flu” value ([2]; 18 H post-injection) was 1.17 ± 0.20 % ID/g, the “PSMA positive tumor uptake (in words)” value ([2]; biodistributions of Tables 2, 3, 9, 10) was “demonstrated PSMA positive tumor uptake” and the “Uptake by LNCaP cells” value (LNCaP cells) was “is blocked, indicating target (PSMA) specific binding”. For the same compound, the Tumor growth inhibition [3] was “PSMA Specific Tumor Growth Inhibition”.
